Values quoted from earlier work in US11523999B2, “Compositions comprising a fatty aged oil mixture and a free fatty acid, and methods and uses thereof” (Pronova Biopharma Norge AS, priority 2009, dated 2022).
Where “and” joins values, the source holds several entries; their conditions need not be identical. Equal values may be shown once.

Details: Other surfactants, Table 7

| HBL Value | Molecule |
| --- | --- |
| 6.1 | CCCCCCCCCCCC(=O)OCCOCCO [Diethylene glycol monolaurate] |
| 1.5 | CCCCCCCCCCCCCCCCCC(=O)OCCOC(=O)CCCCCCCCCCCCCCCCC [Ethylene glycol distearate] |
| 3.3 and 3.8 | CCCCCCCCCCCCCCCCCC(=O)OCC(O)CO (stereo not drawn) [Glyceryl monostearate] |
| 40 | CCCCCCCCCCCCOS(=O)(=O)[O-].[Na+] [Sodium lauryl sulphate] |
| 3.4 | Propylene glycol monostearate |

| Molecule | HBL Value |
| --- | --- |
| CCCCCCCCCCCCCCCC[N+](C)(C)C.[Br-] [Cetrimonium bromide] | 23.3 |

Same assay, conditions: Span surfactants, Table 3

| HLB Value | Molecule |
| --- | --- |
| 4.3 | sorbitan monooleate [Span ® 80] |
| 6.7 | sorbitan monopalmitate [Span ® 40] |
| 4.7 | sorbitan monostearate [Span ® 60] |
